The values that follow come from patent US9415047B2, “Use of benzo five-membered nitrogen heterocyclic piperazine or piperidine derivatives” (Liaoning Emmy Biological Pharmaceutical Co., Ltd., priority 2012, dated 2016).

Test [1] deals with AD constricted rabbit aorta. As to the kind of experiment: Relaxing effects on vascular smooth muscle constricted by adrenaline hydrochloride (AD) in vitro. The settings on record: Oryctolagus cuniculus; relaxation of rabbit aorta constricted by adrenaline (10^−5 mol/L); mean±SEM, n=5. The protocol:
Adrenaline hydrochloride (AD) (10^−5 mol/L) was added into a bath tube to induce constriction, when maximal constriction was achieved, the sample was completely flushed, K-H solution was changed for every 20 min. Contents in the tube was balanced for 60 min, when baseline recovered to be stable, the […] was added at the same concentration to induce constriction. When the later maximal constriction response was basically consistent with the former one, the prepared compound solutions were subsequently added, including compound II-1 to II-60 solutions (1×10^−8-1×10^−3 mol/L), compound II-84 to II-123 solutions (1×10^−10-1×10^−2 mol/L) and compound II-124 to II-157 solutions (1×10^−10˜1×10^−3 mol/L), to record the waveforms. Relaxing percentage of the compound was used as Y axis, maximal relaxation response was 100%, negative logarithm of different concentration was used as X axis, to draw dose effect curve (expressed in mean±SEM ( ? ), n=5). Compounds II-2 and II-3 had the most obvious relaxing effects (FIG. 1 and FIG. 8).

Test [2] concerns high kalium concentration constricted rabbit aorta. As to the kind of experiment: Relaxing effects on vascular smooth muscle constricted by high kalium concentration in vitro. Particulars: Oryctolagus cuniculus, relaxation of rabbit aorta constricted by high kalium solution (K+ 60 mmol/L); mean±SEM, n=5. The protocol: (§1) Adrenaline hydrochloride (AD) (10^−5 mol/L) was added into a bath tube to induce constriction, when maximal constriction was achieved, the sample was completely flushed, K-H solution was changed for every 20 min. Contents in the tube was balanced for 60 min, when baseline recovered to be stable, K-H solution in the bath tube was replaced with high kalium concentration solution to induce constriction. When the later maximal constriction response was basically consistent with the former one, the prepared compound solutions were subsequently added, including compound II-1 to II-60 solutions (1×10^−8-1×10^−3 mol/L), compound II-84 to II-123 solutions (1×10^−10-1×10^−2 mol/L) and compound II-124 to II-157 solutions (1×10^−10-1×10^−3 mol/L), to record the waveforms. Relaxing percentage of the compound was used as Y axis, maximal relaxation response was 100%, negative logarithm of different concentration was used as X axis, to draw dose effect curve (expressed in mean±SEM ( ? ), n=5). Compounds II-2 and II-3 had the most obvious relaxing effects (FIG. 2 and FIG. 9).

Test [3] deals with NA constricted rabbit aorta. As to the kind of experiment: Relaxing effects on vascular smooth muscle constricted by noradrenaline (NA) in vitro. The settings on record: Oryctolagus cuniculus; relaxation of rabbit aorta constricted by noradrenaline (10^−5 mol/L); mean±SEM, n=5. As for the experimental part:
as §1, with “noradrenaline bitartrate (NA) (10^−5 mol/L)” for “K-H solution in the bath tube”, “added” for “replaced with high kalium concentration solution”, “compound” for “compound II-1 to II-60 solutions (1×10^−8-1×10^−3 mol/L), compound”, “mol/L),” for “mol/L) and”, “n=5).” for “n=5). Compounds II-2 and II-3 had the most obvious relaxing effects (FIG. 2 and FIG. 9).”

As a reminder, the EC50 is the concentration giving half of the maximal effect. A higher EC50 goes with a need for much substance.

The structures appear in SMILES notation.

For the molecule `Fc1ccc2nnn(CCCCN3CCN(c4cccc(C(F)(F)F)c4)CC3)c2c1` [II-32, 6-fluoro-1-(4-(4-(3-trifluoromethylphenyl)piperazine-1-yl)butyl)-1H-benzotriazole], the figures for the EC50 in test [1] and in test [2] were 3.89 µM and 24.5 µM, respectively.
`Cc1cc2nnn(CCCCN3CCN(c4cccc(C(F)(F)F)c4)CC3)c2cc1C` [II-33, 5,6-dimethyl-1-(4-(4-(3-trifluoromethylphenyl)piperazine-1-yl)butyl)-1H-benzotriazole]: the EC50 in test [1] is 40.7 µM; in test [2], 115 µM.
Take `c1ccc2c(c1)nnn2CCCCN1CCN(c2nsc3ccccc23)CC1` [II-34, 3-(4-(4-(1H-benzotriazole-1-yl)butyl)piperazine-1-yl)benzisothiazole]: the figures for the EC50 in test [1] and in test [2] were 0.00851 µM and 17 µM, respectively.
Take `c1ccc2c(c1)nnn2CCCCN1CCN(c2noc3ccccc23)CC1` [II-35, 3-(4-(4-(1H-benzotriazole-1-yl)butyl)piperazine-1-yl)benzisoxazole]: the EC50 in test [1] is 12.9 µM; in test [2], 32.4 µM.
For the molecule `Fc1ccc2c(N3CCN(CCCCn4nnc5ccccc54)CC3)noc2c1` [II-36, 6-fluoro-3-(4-(4-(1H-benzotriazole-1-yl)butyl)piperazine-1-yl)benzisoxazole], the EC50 in test [1] and in test [2] was 4.9 µM throughout.
`Fc1ccc2c(N3CCN(CCCn4nnc5ccccc54)CC3)noc2c1` [II-37, 6-fluoro-3-(4-(3-(1H-benzotriazole-1-yl)propyl)piperazine-1-yl)benzisoxazole]: the EC50 in test [1] is 2.75 µM; in test [2], 3.72 µM.
Regarding `COc1cccc(N2CCN(CCCCn3nnc4ccccc43)CC2)c1` [II-40, 1-(4-(4-(3-methoxyphenyl)piperazine-1-yl)butyl)-1H-benzotriazole], the figures for the EC50 in test [1] and in test [2] were 4.47 µM and 5.13 µM, respectively.
Take `N#Cc1cccc(N2CCN(CCCCn3nnc4ccccc43)CC2)c1` [II-41, 1-(4-(4-(3-cyanophenyl)piperazine-1-yl)butyl)-1H-benzotriazole]: the EC50 in test [1] was 30.9 µM; in test [2], 24.5 µM.
For `FC(F)(F)c1cccc(N2CCN(CCCCCn3nnc4ccccc43)CC2)c1` [II-42, 1-(5-(4-(3-trifluoromethylphenyl)piperazine-1-yl)pentyl)-1H-benzotriazole] the same measures were 40.7 µM and 117 µM.
The corresponding values for `c1coc(N2CCN(CCCCn3nnc4ccccc43)CC2)c1` [II-43, 1-(4-(4-(2-furyl)piperazine-1-yl)butyl)-1H-benzotriazole] are 35.5 µM and 141 µM.
On to `c1ccc2c(c1)nnn2CCCCN1CCN(c2ccncc2)CC1` [II-44, 1-(4-(4-(4-pyridyl)piperazine-1-yl)butyl)-1H-benzotriazole], for which the concentration giving a half-maximal response (EC50) is 70.8 µM in test [1] and 186 µM in test [2].
The corresponding values for `c1cnc(N2CCN(CCCCn3nnc4ccccc43)CC2)nc1` [II-45, 1-(4-(4-(2-pyrimidinyl)piperazine-1-yl)butyl)-1H-benzotriazole] are 46.8 µM and 81.3 µM.
The corresponding values for `c1ccc2c(c1)nnn2CCCCN1CCN(C2CCCCC2)CC1` [II-46, 1-(4-(4-cyclohexylpiperazine-1-yl)butyl)-1H-benzotriazole] are 55 µM and 120 µM.
The corresponding values for `c1ccc2c(N3CCN(CCCCn4nnc5ccccc54)CC3)cccc2c1` [II-47, 1-(4-(4-(1-naphthyl)piperazine-1-yl)butyl)-1H-benzotriazole] are 132 µM and 288 µM.
Consider `c1ccc2nc(N3CCN(CCCCn4nnc5ccccc54)CC3)cnc2c1` [II-48, 1-(4-(4-(2-quinoxalinyl)piperazine-1-yl)butyl)-1H-benzotriazole], for which the EC50 in test [1] is 148 µM; in test [2], 372 µM.
The corresponding values for `Fc1ccc2c(N3CCN(CCCCn4nnc5ccccc54)CC3)nsc2c1` [II-49, 1-(4-(4-(3-(6-fluorobenzisothiazolyl))piperazine-1-yl)butyl)-1H-benzotriazole] are 89.1 µM and 141 µM.
For `Fc1ccc2c(N3CCN(CCCn4nnc5ccccc54)CC3)coc2c1` [II-51, 1-(3-(4-(3-(6-fluorobenzofuranyl))piperazine-1-yl)propyl)-1H-benzotriazole], the EC50 in test [1] is 30.2 µM; in test [2] it was 34.7 µM.
Take `Fc1ccc2c(N3CCN(CCCOn4nnc5ccc(F)cc54)CC3)nsc2c1` [II-53, 6-fluoro-1-(4-(4-(3-(6-fluoro-benzisothiazolyl))piperazine-1-yl)propoxyl)-1H-benzotriazole]: the EC50 in test [1] was 52.5 µM; in test [2], 132 µM.
With `FC(F)(F)c1cccc(N2CCN(CCCCn3nnc4ccc(Cl)cc43)CC2)c1` [II-54, 6-chloro-1-(4-(4-(3-trifluoromethylphenyl)piperazine-1-yl)butyl)-1H-benzotriazole], the EC50 in test [1] is 6.17 µM; in test [2], 12.3 µM.
For `N#Cc1ccc2nnn(CCCCN3CCN(c4cccc(C(F)(F)F)c4)CC3)c2c1` [II-55, 6-cyano-1-(4-(4-(3-trifluoromethylphenyl)piperazine-1-yl)butyl)-1H-benzotriazole] the same measures were 97.7 µM and 195 µM.
The corresponding values for `COC(=O)c1ccc2nnn(CCCCN3CCN(c4cccc(C(F)(F)F)c4)CC3)c2c1` [II-56, 6-methoxycarbonyl-1-(4-(4-(3-trifluoromethylphenyl)piperazine-1-yl)butyl)-1H-benzotriazole] are 55 µM and 309 µM.
The corresponding values for `FC(F)(F)c1cccc(N2CCN(CCCCn3ccc4ccccc43)CC2)c1` [II-57, 1-(4-(4-(3-trifluoromethylphenyl)piperazine-1-yl)butyl)-1H-indole] are 61.7 µM and 263 µM.
In the case of `N#Cc1ccc2ccn(CCCCN3CCN(c4cccc(Cl)c4)CC3)c2c1` [II-58, 6-cyano-1-(4-(4-(3-chlorophenyl)piperazine-1-yl)butyl)-1H-indole], the figures for the concentration giving a half-maximal response (EC50) in test [1] and in test [2] were 67.6 µM and 178 µM, respectively.
The corresponding values for `FC(F)(F)c1cccc(N2CCN(CCCn3ncc4ccccc43)CC2)c1` [II-59, 1-(3-(4-(3-trifluoromethylphenyl)piperazine-1-yl)propyl)-1H-benzopyrazole] are 29.5 µM and 61.7 µM.
The corresponding values for `N#Cc1ccc2cnn(CCCN3CCN(c4cccc(Cl)c4Cl)CC3)c2c1` [II-60] are 89.1 µM and 155 µM.
`Fc1ccc2c(C3CCN(CCn4nnc5ccccc54)CC3)noc2c1` [II-94, N-(2-(1-benzotriazolyl)ethyl)-4-(3-(6-fluorobenzisoxazolyl))piperidine] gave a concentration giving a half-maximal response (EC50) in test [3] of 1.55 µM.
On to `Fc1ccc2c(C3CCN(CCn4nnc5ccccc54)CC3)noc2c1` [II-143, N-(2-(1-benzotriazolyl)ethyl)-4-(3-(6-fluorobenzisoxazolyl))piperidine], for which the 50% effective concentration (EC50) was 1.2 µM in test [1] and 120 µM in test [2].
For `Fc1ccc2c(C3CCN(CCCCn4nnc5ccccc54)CC3)noc2c1` [II-144, N-(4-(1-benzotriazolyl)butyl)-4-(3-(6-fluorobenzisoxazolyl))piperidine] the same measures were 1.1 µM and 110 µM.
For `N#Cc1ccc2nnn(CCCCN3CCC(c4noc5cc(F)ccc45)CC3)c2c1` [II-145, N-(4-(6-cyanobenzotriazolyl)butyl)-4-(3-(6-fluorobenzisoxazolyl))piperidine] the same measures were 2.95 µM and 295 µM.
The corresponding values for `COc1ccc2nnn(CCCN3CCC(c4nsc5cc(F)ccc45)CC3)c2c1` [II-149, N-(3-(6-methoxylbenzotriazolyl)propyl)-4-(3-(6-fluorobenzisothiazolyl))piperidine] are 97.7 µM and 490 µM.
`COc1ccc2nnn(CCCN3CCC(c4n[nH]c5cc(F)ccc45)CC3)c2c1` [II-150, N-(3-(6-methoxylbenzotriazolyl)propyl)-4-(3-(6-fluorobenzopyrazol))piperidine]: the 50% effective concentration (EC50) in test [1] is 74.1 µM; in test [2] it was 234 µM.
